The source of these data is US20070275969A1, “NANOPARTICLES FOR ORAL ADMINISTRATION OF PHARMACEUTICAL AGENTS OF LOW SOLUBILITY” (priority 1995, published 2007).

The structures appear in SMILES notation.

Data set [1] in a line: half-life in in-vivo pharmaceutical models (mouse). The conditions noted are these: some in-vivo pharmaceutical models (mouse). The method, then: (§1) Since then several types of HIV-1 protease inhibitors have become known. […] The latter effect is presently attributed to the extremely low aqueous solubility (8 mg/1000 ml at pH 7.4).
Data set [2] in a line: aqueous solubility of the active agent. The format is physicochemical. The conditions noted are these: pH 7.4. As for the experimental part: as §1
A short description of a further data set: oral bioavailability. The conditions noted are these: in vivo. As for the experimental part:
as §1

For `COc1ccc(C[C@H](C[C@H](O)[C@H](Cc2ccccc2)NC(=O)OC(C)(C)C)C(=O)N[C@H](C(=O)N[C@@H](Cc2ccccc2)C(=O)N2CCOCC2)C(C)C)cc1` [HIV-1 protease inhibitor (A), 5(S)-tert.-Butoxycarbonyl-amino-4(S)-hydroxy-2(R)-4-methoxyphenylmethyl-6-phenyl-hexanoyl-(L)-Val-(L)-Phe-morpholin-4-ylamide], in data set [1], the half-life entry is “relatively short half-life”. In data set [2], the aqueous solubility was 8 mg/1000 ml. In addition, the oral bioavailability entry in the data set “oral bioavailability” is “insufficient oral bioavailability”.
